According to publication PMC7072329, “Discovery of Kynurenines Containing Oligopeptides as Potent Opioid Receptor Agonists” (Biomolecules, 2020):
Read-outs that look alike come from different tables or passages of the source. Where a SMILES comes first, the peptide text is derived from it. [ ]: non-standard residue; d: D form. Kyn = Nc1ccccc1C(=O)C[C@H](N)C(=O)O

Tests used:
CD-1 male mice [1] = experiment: tail flick test; format: in vivo; conditions: i.c.v., 10 μg/10 μL, 15 to 120 min
Protocol: (§1) In our experiments, we used CD-1 male mice (Harlan, Italy, 25–30 g) maintained in colony, housed in cages (7 mice per cage) under standard light/dark cycle (from 7:00 a.m. to 7:00 p.m.), temperature (21 ± 1 °C) and relative humidity (60% ± 10%) for at least 1 week. Food and water were available ad libitum. The Service for Biotechnology and Animal Welfare of the Istituto Superiore di Sanità and the Italian Ministry of Health authorized the experimental protocol according to Legislative Decree 26/14.
DMSO was purchased from Merck (Rome, Italy). Peptides solutions were freshly prepared using saline containing 0.9% NaCl and DMSO in the ratio DMSO/saline 1:5 v/v every experimental day. […]
The tail flick latency was obtained using a commercial unit (Ugo Basile, Gemonio, Italy), consisting of an infrared radiant light source (100 W, 15 V bulb) focused onto a photocell utilizing an aluminum parabolic mirror. […] Radiant heat was focused 3–4 cm from the tip of the tail, and the latency (s) of the tail withdrawal to the thermal stimulus was recorded. […] The baseline latency was calculated as mean of three readings recorded before testing at intervals of 15 min and the time course of latency determined at 15, 30, 45, 60, 90, and 120 min after treatment. […]
Experimental data were expressed as mean ± s.e.m. […]

CD-1 male mice [2] = experiment: formalin test; format: in vivo; conditions: s.c. in hind paw, 100 μg/20 μL, 15 min before formalin
Protocol: as §1
DMSO was purchased from Merck (Rome, Italy). Peptides solutions were freshly prepared using saline containing 0.9% NaCl and DMSO in the ratio DMSO/saline 1:5 v/v every experimental day. These solutions were injected at a volume of 10 μL/mouse for intracerebroventricular (i.c.v.) administrations or at a volume of 20 μL/mouse for subcutaneous administrations.
In the formalin test, the injection of a dilute solution of formalin (1%, 20 μL/paw) into the dorsal surface of the mouse hind paw evoked biphasic nociceptive behavioral responses, such as licking, biting the injected paw, or both, occurring from 0 to 10 min after formalin injection (the early phase) and a prolonged phase, occurring from 15 to 40 min (the late phase). Before the test, mice were individually placed in a Plexiglas observation cage (30 × 14 × 12 cm) for one hour, to acclimatize to the testing environment. The total time the animal spent licking or biting its paw during the early and late phase of formalin-induced nociception was recorded.
Experimental data were expressed as mean ± s.e.m. In the tail flick test, significant differences among the groups were evaluated with two-way ANOVA followed by Sidak’s multiple comparisons test. Formalin test data were analyzed by using one-way ANOVA, followed by Holm–Sidak’s multiple comparisons test. […] Statistical significance was set at p < 0.05. The data and statistical analysis comply with the recommendations on experimental design and analysis in pharmacology.
Early phase represents the formalin-induced nociceptive behavior recorded from 0 to 10 min after formalin injection; late phase is for the formalin-induced nociceptive behavior recorded from 15 to 40 min after formalin injection. V is for vehicle-treated animals. Statistical analysis: one-way ANOVA followed by Holm–Sidak’s multiple comparisons test. ** is for p < 0.01 and *** is for p < 0.001 vs. V. n = 7.

μ, δ, κ-receptors = system: μ, δ, κ-receptors; design: method as in PMID 25478797; conditions: cited from earlier work
NMDA receptor [3] = system: NMDA receptor; design: method as in earlier work; conditions: cited from earlier work
NMDA receptor [4] = experiment: [3H]MK-801 competition binding, rat brain membrane; conditions: read-out: Ki + S.E.M., displacement of [3H]MK-801
G-protein [5] = experiment: functional [35S]GTPγS binding, rat brain membrane homogenates; format: biochemical; conditions: for Potency Log EC50 ± S.E.M. / Maximal Stimulation (Efficacy) Emax ± S.E.M.: dose-response curves; for Maximal Stimulation (Efficacy) Emax ± S.E.M.: basal = 100%; for Emax + S.E.M., Ligand: ligand alone, bar graphs Figure S3
Protocol: (§2) Rats and guinea pigs were decapitated, and their brains were quickly removed. The brains were used for membrane preparation following the procedure reported by Benyhe for binding and [^35S]GTPγS binding experiments, in agreement with the protocol of Zádor et al..
(§3) Homogenization of brains was performed in 30 volumes (v/w) of ice-cold 50 mM Tris-HCl pH 7.4 buffer with a Teflon-glass Braun homogenizer at 1500 rpm. The centrifuge was settled at 18,000 rpm for 20 min at 4 °C, the resulting supernatant discarded, and the pellet taken up in the original volume of Tris-HCl buffer. Incubation of homogenate at 37 °C for 30 min was performed in a shaking water-bath. Five volumes of 50 mM Tris-HCl pH 7.4 buffer were used to suspend the final pellet at −80 °C. For the [^35S]GTPγS binding experiments, the brains were homogenized with a Dounce in 5 volumes (v/w) of ice-cold TEM (Tris-HCl, EGTA, MgCl2) at −80 °C. The protein content of the membrane preparation was determined by the method of Bradford, BSA being used as a standard.
(§4) The functional [^35S]GTPγS binding experiments were performed as previously described. Briefly the membrane homogenates were incubated at 30 °C for 60 min in Tris-EGTA buffer (pH 7.4) composed of 50 mM Tris-HCl, 1 mM EGTA, 3 mM MgCl2, 100 mM NaCl, containing 20 MBq/0.05 cm^3 [^35S]GTPγS (0.05 nM) and increasing concentrations (10^−10 to 10^−5 M) of ligands. The experiments were performed in the presence of excess GDP (30 μM) in a final volume of 1 mL. Total binding was measured in the absence of test compounds, non-specific binding was determined in the presence of 10 μM unlabeled GTPγS. The reaction was terminated by rapid filtration under vacuum and washed three times with 5 mL ice-cold 50 mM Tris-HCl (pH 7.4) buffer through Whatman GF/B glass fibers. The radioactivity of the filters was detected in an UltimaGold^TM MV aqueous scintillation cocktail with a Packard Tricarb 2300TR liquid scintillation counter.
(§5) Experimental data are presented as means ± S.E.M. Sigmoid dose-response curves were fitted with GraphPad Prism 5.0 (GraphPad Prism Software Inc., San Diego, CA, USA). An unpaired t-test with two-tailed p value was performed to determine the significance level. In the competition binding assays, the ‘One site competition’ fitting was used to establish the equilibrium binding affinity (Ki value).
[35S]GTPγS binding assay in rat brain membrane homogenates. Figure S2 represents the specific binding of [35S]GTPγS in percentage in presence of increasing concentrations (10-10 - 10^-5 M) of the indicated ligands. “Total” on the x-axis indicates the basal activity of the monitored G-protein, which is measured in the absence of the ligands and represents the total specific binding of [35S]GTPγS. The level of basal activity was defined as 100% and it is presented with a dotted line. Points represent means ± S.E.M. for at least three experiments […]
(§6) Figure S3. The effect of novel oligopeptides on G-protein activity in [35S]GTPγS binding assays in the absence or presence of the selective MOR antagonist cyprodime (Cyp) and the selective DOR antagonist naltrindole (NTI) in rat brain membrane homogenates (Figure A) and the selective KOR antagonist norbinaltorphine (nor-BNI) in guinea pig brain membrane homogenates (Figure B). The level of basal activity was defined as 100% and it is presented with a dotted line. Points represent means ± S.E.M. for at least three experiments performed

κ-opioid receptor = biological target: T1, κ-opioid receptor (Cavia porcellus, UniProt P41144); experiment: biochemical; format: binding; conditions: KOR; guinea pig brain membrane; from IC50 by Cheng–Prusoff; read-out: Ki + S.E.M., displacement of [3H]HS665
T1 construct: aliquots of frozen rat and guinea pig brain membrane homogenates were thawed and suspended in 50 mM Tris-HCl buffer; from tissue; host or cells: guinea pig brain membrane homogenate
T1 sequence (P41144 whole entry): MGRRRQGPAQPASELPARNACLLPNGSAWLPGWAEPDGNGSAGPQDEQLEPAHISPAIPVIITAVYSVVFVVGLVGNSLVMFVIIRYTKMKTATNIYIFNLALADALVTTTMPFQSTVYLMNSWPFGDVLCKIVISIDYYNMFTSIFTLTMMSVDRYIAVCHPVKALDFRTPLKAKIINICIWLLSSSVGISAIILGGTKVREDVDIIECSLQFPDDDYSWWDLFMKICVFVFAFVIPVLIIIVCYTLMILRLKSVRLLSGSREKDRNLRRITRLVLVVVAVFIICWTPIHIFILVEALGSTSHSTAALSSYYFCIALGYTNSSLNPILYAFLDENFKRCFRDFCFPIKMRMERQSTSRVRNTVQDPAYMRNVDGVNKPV

δ-opioid receptor = biological target: T2, δ-opioid receptor (Rattus norvegicus, UniProt P33533); experiment: biochemical; format: binding; conditions: DOR; rat brain membrane; from IC50 by Cheng–Prusoff; read-out: Ki + S.E.M., displacement of [3H]Ile5,6Delt II
T2 construct: aliquots of frozen rat and guinea pig brain membrane homogenates were thawed and suspended in 50 mM Tris-HCl buffer; from tissue; host or cells: Wistar rat brain membrane homogenate
T2 sequence (P33533 whole entry): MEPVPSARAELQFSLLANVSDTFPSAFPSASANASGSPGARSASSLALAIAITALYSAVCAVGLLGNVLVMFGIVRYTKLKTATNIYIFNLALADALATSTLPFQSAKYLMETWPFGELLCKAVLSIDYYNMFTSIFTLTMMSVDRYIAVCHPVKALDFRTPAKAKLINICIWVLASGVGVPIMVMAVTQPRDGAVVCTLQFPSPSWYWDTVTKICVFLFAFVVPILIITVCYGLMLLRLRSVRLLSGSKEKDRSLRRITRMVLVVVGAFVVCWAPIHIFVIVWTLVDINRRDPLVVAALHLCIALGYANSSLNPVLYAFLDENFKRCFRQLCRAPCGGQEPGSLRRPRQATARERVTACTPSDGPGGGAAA

G-protein [6] = experiment: functional [35S]GTPγS binding, guinea pig brain membrane homogenates; format: biochemical; conditions: ligand alone
Protocol: as §2, §3, §4, §5
as §6, with “The level of basal activity was defined as 100% and it is presented with a dotted line. Points represent means ± S.E.M. for at least three experiments performed” left out

[7] = design: method as in PMID 21598333; conditions: cited from earlier work
[8] = NMDA system, rat brain membrane, from IC50 by Cheng–Prusoff

With `C[C@@H](NC(=O)[C@@H](N)Cc1ccc(O)cc1)C(=O)NCC(=O)N(C)[C@@H](Cc1ccccc1)C(=O)NCCO` [DAMGO, Tyr-D-Ala-Gly-(NMe)Phe-Gly-ol, reference compound] the “effect on time of response to thermal nociceptive stimuli (tail flick)” value (CD-1 male mice [1]) was “greatly increase the time of response to thermal nociceptive stimuli”, the “formalin-induced nociceptive behavior, early phase” value (CD-1 male mice [2]; 0 to 10 min) was “reduction of the nociceptive behavior both early and late” and the “formalin-induced nociceptive behavior, late phase” value (CD-1 male mice [2]; 15 to 40 min) was “reduction of the nociceptive behavior both early and late”.
In the case of `CN(C)CCNC(=O)c1cc(=O)c2ccccc2[nH]1.Cl` [KYNA1], the “direct binding to μ, δ, κ-receptors in vitro” value (μ, δ, κ-receptors) is given as “did not directly bind”.
For `O=C(O)c1cc(=O)c2ccccc2[nH]1` [KYNA, kynurenic acid], the “direct binding to μ, δ, κ-receptors in vitro” value (μ, δ, κ-receptors) is given as “did not directly bind”, the “affinity for NMDA receptor” value (NMDA receptor [3]) is given as “micromolar affinity” and the Ki (NMDA receptor [4]; [8]) is given as over 10 µM.
With `Nc1ccccc1C(=O)C[C@H](N)C(=O)O` [L-kyn, L-kynurenine, reference compound] the Ki (NMDA receptor [4]; [8]) was over 10 µM.
For `NC(=O)[C@H](Cc1ccccc1)NC(=O)[C@H](CC(=O)c1ccccc1N)NC(=O)[C@@H]1CCCN1C(=O)[C@@H](N)Cc1ccc(O)cc1` [Peptide K2], the “Potency Log EC50 ± S.E.M.” value (G-protein [5]) was −7.535 ± 0.354, the “Maximal Stimulation (Efficacy) Emax ± S.E.M.” value (shortened to “Maximal Stimulation”) (G-protein [5]) was 121.6 ± 2.5% and the “Emax + S.E.M., Ligand” value (G-protein [5]) was 129.9 ± 8.2%. For the same molecule, the Ki (κ-opioid receptor) was 1.043 ± 0.0003 µM, the Ki (δ-opioid receptor) was over 10 µM and the “Emax + S.E.M., Ligand” value (G-protein [6]) was 92.8 ± 2.0%. It also gave a Ki (NMDA receptor [4]) of over 10 µM.
In the case of `NC(=O)[C@H](CC(=O)c1ccccc1N)NC(=O)[C@H](Cc1ccccc1)NC(=O)[C@@H]1CCCN1C(=O)[C@@H](N)Cc1ccc(O)cc1` [Peptide K3] (H-YPF[Kyn]-NH2), the “Potency Log EC50 ± S.E.M.” value (G-protein [5]) is reported as −6.993 ± 0.422, the “Maximal Stimulation” value (G-protein [5]) is reported as 114.0 ± 2.1% and the “Emax + S.E.M., Ligand” value (G-protein [5]) is reported as 118.9 ± 3.0%. For the same molecule, the Ki (κ-opioid receptor) was over 10 µM, the Ki (δ-opioid receptor) was 0.159 ± 0.0016 µM and the “Emax + S.E.M., Ligand” value (G-protein [6]) was 95.2 ± 2.2%. The Ki (NMDA receptor [4]) was over 10 µM.
With `COC(=O)[C@H](CC(=O)c1ccccc1N)NC(=O)[C@H](Cc1ccccc1)NC(=O)CNC(=O)[C@@H](C)NC(=O)[C@@H](N)Cc1ccc(O)cc1` [Peptide K4] (H-Y[dA]GF[Kyn]-OMe) the “Potency Log EC50 ± S.E.M.” value (G-protein [5]) was −6.073 ± 0.172, the “Maximal Stimulation” value (G-protein [5]) was 155.5 ± 4.8% and the “Emax + S.E.M., Ligand” value (G-protein [5]) was 160.6 ± 5.7%. For the same molecule, the Ki (κ-opioid receptor) was over 10 µM, the “Emax + S.E.M., Ligand” value (G-protein [6]) was 125.2 ± 2.0% and the Ki (NMDA receptor [4]) was over 10 µM.
Molecule `C[C@@H](NC(=O)[C@@H](N)Cc1ccc(O)cc1)C(=O)NCC(=O)N[C@@H](Cc1ccccc1)C(=O)N[C@@H](CC(=O)c1ccccc1N)C(=O)O` [Peptide K5] (H-Y[dA]GF[Kyn]-OH) has a Ki (κ-opioid receptor) of over 10 µM.
For FP-Kyn-L-NH2, the “concentration with opioid activity” value [7] is given as 10^−7 M.
